Results as given in ChEMBL document CHEMBL1201862, “PubChem BioAssay data set” (2004).
One block for each compound: values may come before it. The source made the active and inactive calls.

Legend:
[1] = biological target: Voltage-dependent T-type calcium channel subunit alpha-1H (Homo sapiens, UniProt O95180); assay: Cav3.2 T-type channel inhibitors, cell-based, synthetic library set 1, calcium flux (AID 493022); format: functional
[2] = biological target: Glucose-6-phosphate 1-dehydrogenase (Homo sapiens, UniProt P11413); assay: human G6PD enzyme inhibitors, dose response, selectivity assay for P. falciparum G6PD inhibitor project, biochemical, fluorescence (AID 504792); format: functional
Chain of Glucose-6-phosphate 1-dehydrogenase (P11413 whole entry): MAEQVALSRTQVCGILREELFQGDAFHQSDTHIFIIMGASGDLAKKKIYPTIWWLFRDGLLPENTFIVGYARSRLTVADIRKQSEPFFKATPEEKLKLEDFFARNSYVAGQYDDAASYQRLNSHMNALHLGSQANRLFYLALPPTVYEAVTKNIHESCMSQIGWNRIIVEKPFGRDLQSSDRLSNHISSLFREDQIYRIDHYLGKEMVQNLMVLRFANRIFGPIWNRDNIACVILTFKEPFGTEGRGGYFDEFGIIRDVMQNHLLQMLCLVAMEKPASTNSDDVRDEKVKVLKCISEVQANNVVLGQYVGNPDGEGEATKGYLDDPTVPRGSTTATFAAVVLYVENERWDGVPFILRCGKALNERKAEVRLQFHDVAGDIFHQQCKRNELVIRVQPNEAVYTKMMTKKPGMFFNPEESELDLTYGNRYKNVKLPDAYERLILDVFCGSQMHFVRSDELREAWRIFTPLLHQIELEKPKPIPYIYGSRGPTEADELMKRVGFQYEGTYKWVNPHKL

[3] = biological target: Hexokinase (Trypanosoma brucei, UniProt Q38C41); assay: Confirmation assay for inhibitors of Trypanosoma brucei hexokinase 1-Analogue-first series. [Related pubchem assays (depositor defined):AID1430, AID1632, AID2516, AID2560, AID2579, AID2600, AID449725, AID492951]; format: functional
Chain of Hexokinase (Q38C41 whole entry): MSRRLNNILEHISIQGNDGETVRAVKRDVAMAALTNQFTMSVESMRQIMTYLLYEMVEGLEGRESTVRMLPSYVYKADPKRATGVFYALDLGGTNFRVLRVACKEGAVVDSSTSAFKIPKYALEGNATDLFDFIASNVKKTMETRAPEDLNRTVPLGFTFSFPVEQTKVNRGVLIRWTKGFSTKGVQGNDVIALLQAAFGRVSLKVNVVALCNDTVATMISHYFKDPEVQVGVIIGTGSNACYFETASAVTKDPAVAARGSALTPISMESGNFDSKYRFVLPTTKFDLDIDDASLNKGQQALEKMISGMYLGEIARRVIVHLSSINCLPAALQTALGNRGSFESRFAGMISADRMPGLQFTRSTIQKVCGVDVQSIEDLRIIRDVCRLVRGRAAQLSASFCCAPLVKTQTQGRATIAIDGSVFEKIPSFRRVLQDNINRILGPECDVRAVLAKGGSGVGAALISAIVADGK

[4] = biological target: T1, Rac GTPase-activating protein 1 (Homo sapiens, UniProt Q9H0H5); assay: MgcRacGAP GTPase-activating activity inhibitors, confirmation, biochemical, ADP Hunter fluorescence, primary and confirmatory (AID 624330); format: functional
T1 sequence (Q9H0H5 whole entry): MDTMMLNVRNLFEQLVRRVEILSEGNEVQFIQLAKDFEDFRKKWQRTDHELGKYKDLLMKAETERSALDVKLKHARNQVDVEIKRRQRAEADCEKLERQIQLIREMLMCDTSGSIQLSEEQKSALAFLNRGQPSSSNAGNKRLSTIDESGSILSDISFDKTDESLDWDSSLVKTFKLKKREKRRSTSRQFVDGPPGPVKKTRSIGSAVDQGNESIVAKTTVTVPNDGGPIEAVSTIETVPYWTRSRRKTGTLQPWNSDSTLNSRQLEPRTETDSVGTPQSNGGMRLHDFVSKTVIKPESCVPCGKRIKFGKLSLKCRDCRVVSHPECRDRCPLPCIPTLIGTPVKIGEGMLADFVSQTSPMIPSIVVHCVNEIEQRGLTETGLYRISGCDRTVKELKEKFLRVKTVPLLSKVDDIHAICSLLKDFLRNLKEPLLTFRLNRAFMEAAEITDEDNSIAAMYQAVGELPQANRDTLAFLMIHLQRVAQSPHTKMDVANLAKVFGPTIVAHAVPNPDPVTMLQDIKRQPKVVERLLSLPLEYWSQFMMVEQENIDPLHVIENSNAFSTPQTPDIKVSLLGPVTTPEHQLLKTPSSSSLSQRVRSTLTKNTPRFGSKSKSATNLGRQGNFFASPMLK

[5] = biological target: T2, Tyrosine-protein phosphatase non-receptor type 7 (Homo sapiens, UniProt P35236); assay: SAR analysis of chemical inhibitors of HePTP using a Fluorescent assay - Set 2. [Related pubchem assays (depositor defined):AID1059, AID1077, AID1661, AID2085, AID521]; format: functional
T2 sequence (P35236 whole entry): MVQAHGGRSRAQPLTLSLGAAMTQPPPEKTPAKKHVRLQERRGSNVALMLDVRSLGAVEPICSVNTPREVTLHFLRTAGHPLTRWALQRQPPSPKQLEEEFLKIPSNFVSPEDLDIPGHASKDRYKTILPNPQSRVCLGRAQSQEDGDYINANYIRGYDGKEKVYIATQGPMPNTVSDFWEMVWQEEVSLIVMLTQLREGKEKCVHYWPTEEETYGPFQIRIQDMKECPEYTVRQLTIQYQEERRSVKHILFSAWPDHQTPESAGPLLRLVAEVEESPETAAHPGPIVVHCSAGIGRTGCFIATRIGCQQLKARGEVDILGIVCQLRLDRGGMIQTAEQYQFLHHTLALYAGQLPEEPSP

[6] = biological target: Dual specificity protein phosphatase 3 (Homo sapiens, UniProt P51452); assay: SAR VHR1 Fluorescent Assay for In Vitro dose response studies Set 2. [Related pubchem assays (depositor defined):AID1654, AID1661, AID1878]; format: functional
Chain of Dual specificity protein phosphatase 3 (P51452 whole entry): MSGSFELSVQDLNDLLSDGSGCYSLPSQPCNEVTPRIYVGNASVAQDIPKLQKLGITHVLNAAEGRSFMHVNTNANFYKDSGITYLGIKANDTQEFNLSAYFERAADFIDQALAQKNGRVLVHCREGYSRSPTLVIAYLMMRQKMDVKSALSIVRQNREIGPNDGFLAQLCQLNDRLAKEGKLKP

[7] = biological target: Phosphoethanolamine/phosphocholine phosphatase (Homo sapiens, UniProt Q8TCT1); assay: SAR assay for compounds that inhibit PHOSPHO1. [Related pubchem assays (depositor defined):AID1545, AID1565, AID1574]
Chain of Phosphoethanolamine/phosphocholine phosphatase (Q8TCT1 whole entry): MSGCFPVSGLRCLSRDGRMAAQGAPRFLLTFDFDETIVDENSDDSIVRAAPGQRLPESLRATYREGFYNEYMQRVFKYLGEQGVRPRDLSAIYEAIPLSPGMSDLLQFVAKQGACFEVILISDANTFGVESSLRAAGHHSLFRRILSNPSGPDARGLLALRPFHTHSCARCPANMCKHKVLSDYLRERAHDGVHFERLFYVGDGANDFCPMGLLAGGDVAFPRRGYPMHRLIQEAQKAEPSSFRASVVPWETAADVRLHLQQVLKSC

[8] = biological target: T3, Mannose-6-phosphate isomerase (Homo sapiens, UniProt P34949); assay: PMI enzyme inhibitors, confirmation, biochemical, fluorescence intensity (AID 1535)
T3 sequence (P34949 whole entry): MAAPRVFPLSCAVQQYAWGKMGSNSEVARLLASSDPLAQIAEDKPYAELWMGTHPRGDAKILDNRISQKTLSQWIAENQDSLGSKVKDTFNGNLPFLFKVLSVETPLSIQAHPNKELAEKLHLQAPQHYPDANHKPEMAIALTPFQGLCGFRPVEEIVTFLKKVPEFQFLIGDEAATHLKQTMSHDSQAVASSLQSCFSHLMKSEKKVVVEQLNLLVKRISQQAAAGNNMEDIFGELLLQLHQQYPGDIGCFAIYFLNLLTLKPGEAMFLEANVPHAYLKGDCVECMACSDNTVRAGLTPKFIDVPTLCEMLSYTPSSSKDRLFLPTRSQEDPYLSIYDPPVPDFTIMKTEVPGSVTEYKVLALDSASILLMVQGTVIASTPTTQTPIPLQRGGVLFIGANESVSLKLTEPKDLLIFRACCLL

[9] = biological target: G-protein coupled receptor 55 (Homo sapiens, UniProt Q9Y2T6); assay: GPR55 agonists via beta-arrestin recruitment, primary screen, imaging, U2OS cells, beta-arrestin-GFP redistribution (AID 1961); format: functional
Chain of G-protein coupled receptor 55 (Q9Y2T6 whole entry): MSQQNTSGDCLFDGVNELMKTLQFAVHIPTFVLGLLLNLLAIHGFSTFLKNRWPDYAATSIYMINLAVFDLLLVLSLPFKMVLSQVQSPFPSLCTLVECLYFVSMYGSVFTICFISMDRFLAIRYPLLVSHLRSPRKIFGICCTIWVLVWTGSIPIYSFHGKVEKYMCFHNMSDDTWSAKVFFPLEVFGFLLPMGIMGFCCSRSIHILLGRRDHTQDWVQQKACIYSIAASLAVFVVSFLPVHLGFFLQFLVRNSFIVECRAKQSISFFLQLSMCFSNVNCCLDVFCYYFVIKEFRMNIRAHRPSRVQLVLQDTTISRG

Chain of Voltage-dependent T-type calcium channel subunit alpha-1H (O95180 whole entry): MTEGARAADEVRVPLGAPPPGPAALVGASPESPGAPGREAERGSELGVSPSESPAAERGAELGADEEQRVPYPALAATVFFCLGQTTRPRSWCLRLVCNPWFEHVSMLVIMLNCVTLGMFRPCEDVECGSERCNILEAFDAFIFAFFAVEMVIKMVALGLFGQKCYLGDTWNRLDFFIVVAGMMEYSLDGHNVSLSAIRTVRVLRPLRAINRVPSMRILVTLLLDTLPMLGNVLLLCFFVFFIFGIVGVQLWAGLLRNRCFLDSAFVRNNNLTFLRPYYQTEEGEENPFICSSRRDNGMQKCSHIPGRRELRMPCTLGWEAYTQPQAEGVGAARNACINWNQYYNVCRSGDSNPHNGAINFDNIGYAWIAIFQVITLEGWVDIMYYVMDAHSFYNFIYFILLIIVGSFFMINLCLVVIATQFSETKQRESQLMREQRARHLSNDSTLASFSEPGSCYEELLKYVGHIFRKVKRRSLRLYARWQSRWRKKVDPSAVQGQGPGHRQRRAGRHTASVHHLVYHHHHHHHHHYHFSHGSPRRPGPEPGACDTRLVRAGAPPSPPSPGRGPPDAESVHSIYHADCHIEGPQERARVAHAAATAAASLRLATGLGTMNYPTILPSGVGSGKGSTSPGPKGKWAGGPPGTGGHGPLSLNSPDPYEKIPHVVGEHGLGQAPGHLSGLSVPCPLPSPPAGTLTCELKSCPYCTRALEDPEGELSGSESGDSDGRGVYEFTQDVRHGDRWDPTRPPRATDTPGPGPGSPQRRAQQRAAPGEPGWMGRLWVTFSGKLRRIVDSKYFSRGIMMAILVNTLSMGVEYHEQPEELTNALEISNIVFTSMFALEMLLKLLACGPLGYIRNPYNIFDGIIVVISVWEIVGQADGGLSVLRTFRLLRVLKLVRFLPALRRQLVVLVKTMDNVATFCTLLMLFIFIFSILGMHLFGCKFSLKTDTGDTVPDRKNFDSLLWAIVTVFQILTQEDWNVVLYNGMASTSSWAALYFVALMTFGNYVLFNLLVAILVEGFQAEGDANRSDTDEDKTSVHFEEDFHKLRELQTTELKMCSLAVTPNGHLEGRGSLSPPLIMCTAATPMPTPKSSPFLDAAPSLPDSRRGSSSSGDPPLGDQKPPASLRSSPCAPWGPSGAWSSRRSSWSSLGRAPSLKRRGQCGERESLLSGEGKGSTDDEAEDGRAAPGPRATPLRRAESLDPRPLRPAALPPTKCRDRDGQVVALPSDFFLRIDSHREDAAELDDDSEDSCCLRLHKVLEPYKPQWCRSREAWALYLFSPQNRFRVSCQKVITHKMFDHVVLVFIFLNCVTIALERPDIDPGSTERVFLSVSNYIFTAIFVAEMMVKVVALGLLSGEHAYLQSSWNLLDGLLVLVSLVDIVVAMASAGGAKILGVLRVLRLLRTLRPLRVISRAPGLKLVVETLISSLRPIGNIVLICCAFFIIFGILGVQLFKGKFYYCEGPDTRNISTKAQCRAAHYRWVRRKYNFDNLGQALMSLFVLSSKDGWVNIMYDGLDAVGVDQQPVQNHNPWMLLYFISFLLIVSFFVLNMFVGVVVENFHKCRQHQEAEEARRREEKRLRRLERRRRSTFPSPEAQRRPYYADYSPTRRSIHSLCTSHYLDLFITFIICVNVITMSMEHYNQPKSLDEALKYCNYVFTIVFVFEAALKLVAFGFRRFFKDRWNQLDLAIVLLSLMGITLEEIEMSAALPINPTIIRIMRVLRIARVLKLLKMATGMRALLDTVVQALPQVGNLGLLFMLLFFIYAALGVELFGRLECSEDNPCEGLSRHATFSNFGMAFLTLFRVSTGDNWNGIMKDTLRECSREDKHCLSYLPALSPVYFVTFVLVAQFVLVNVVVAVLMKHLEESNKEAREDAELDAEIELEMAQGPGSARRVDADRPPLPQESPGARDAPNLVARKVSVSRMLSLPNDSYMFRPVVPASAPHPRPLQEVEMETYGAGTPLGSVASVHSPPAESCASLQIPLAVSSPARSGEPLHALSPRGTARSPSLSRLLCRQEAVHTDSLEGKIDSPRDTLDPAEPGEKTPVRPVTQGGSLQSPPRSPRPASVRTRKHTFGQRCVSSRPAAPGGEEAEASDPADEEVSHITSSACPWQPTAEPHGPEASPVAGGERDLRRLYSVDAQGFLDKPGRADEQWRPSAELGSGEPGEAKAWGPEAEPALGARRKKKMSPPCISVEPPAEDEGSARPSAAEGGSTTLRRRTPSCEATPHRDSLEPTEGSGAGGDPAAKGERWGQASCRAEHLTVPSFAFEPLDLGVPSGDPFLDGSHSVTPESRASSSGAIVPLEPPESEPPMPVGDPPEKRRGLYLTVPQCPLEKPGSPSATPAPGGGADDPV

SMILES: O=C(COc1ccccc1F)Nc1nnc(-c2ccc3ccccc3c2)o1
EC50 [1]: 1.8 µM (active)

SMILES: O=C(Cn1sc2ccccc2c1=O)Nc1ccccc1
IC50 [2]: 12.7 µM (active)
IC50 [3]: 6.69 µM (active)
IC50 [4]: 73.1 µM (active)

SMILES: COc1cc(C(=S)NCc2cccc(F)c2)ccc1O
IC50 [5]: 23.4 µM (active)
IC50 [6]: 32.8 µM (active)

Next, values leading:

IC50 [7]: 0.233 µM (active)
IC50 [8]: 2.14 µM (active)
SMILES: O=c1c2c([N+](=O)[O-])cc([N+](=O)[O-])cc2sn1-c1ccc(OC(F)(F)Cl)cc1

EC50 [9]: < 0.5 µM (active)
SMILES: CCN(CC)c1ccc2nc3c4ccccc4c(=O)cc-3oc2c1 [NILE RED]
